Assays:
Format in all cases: biochemical
[1] = target: T1, purified recombinant human TG2 (tissue transglutaminase) (Homo sapiens, UniProt P21980); assay: TG2 transamidation activity, biotin X-cadaverine incorporation into N,N′-dimethylcasein (Example 2); conditions: recombinant human TG2 400 ng/ml, 2 h at 37° C.
T1 construct: purchased Zedira, Germany
T1 sequence (P21980 1-687): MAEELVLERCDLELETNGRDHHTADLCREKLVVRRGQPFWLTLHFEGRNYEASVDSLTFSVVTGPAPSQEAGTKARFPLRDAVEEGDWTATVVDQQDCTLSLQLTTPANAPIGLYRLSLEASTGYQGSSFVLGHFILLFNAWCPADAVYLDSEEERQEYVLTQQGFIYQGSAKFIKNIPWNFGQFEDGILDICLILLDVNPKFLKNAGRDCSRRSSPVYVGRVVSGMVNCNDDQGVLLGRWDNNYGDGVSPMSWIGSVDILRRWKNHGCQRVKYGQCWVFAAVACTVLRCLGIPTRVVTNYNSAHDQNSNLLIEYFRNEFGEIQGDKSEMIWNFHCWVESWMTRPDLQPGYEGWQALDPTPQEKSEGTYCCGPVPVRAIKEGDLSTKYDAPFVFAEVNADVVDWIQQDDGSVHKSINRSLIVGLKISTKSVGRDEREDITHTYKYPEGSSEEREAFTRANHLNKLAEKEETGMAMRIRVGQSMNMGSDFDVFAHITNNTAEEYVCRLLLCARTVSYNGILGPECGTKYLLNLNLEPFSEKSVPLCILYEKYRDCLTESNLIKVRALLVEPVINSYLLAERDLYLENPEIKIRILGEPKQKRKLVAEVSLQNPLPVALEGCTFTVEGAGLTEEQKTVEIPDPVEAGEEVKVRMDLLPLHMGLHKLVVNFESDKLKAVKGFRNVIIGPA
Procedure: TG transamidation activity and the affect of inhibitors on activity was measured by biotin X-cadaverine incorporation into N,N′-dimethylcasein. After coating 96 well plates with 100 μl of 10 mg/ml N,N′-dimethylcasein in 50 mM Tris-Cl, pH8 at 4° C. over night, plates were washed with TBS-0.05% Tween-20(v/v), pH 7.6 and TBS, pH 7.6, and 100 μl purified recombinant human TG2 (400 ng/ml Zedira, Germany) (tissue transglutaminase) in 50 mM Tris-HCl, pH7.4, containing 1 mM DTT, 10 mM CaCl2 and 0.1 μM biotin-cadaverine added into the coated wells containing the appropriate concentration of inhibitor. The reaction was allowed to proceed for 2 h at 37° C. The plate was then washed twice with TBS-Tween-20 (v/v), pH 7.6 and once with TBS, pH 7.6 before being blocked with 100 μl of blocking buffer (3% (w/v) BSA in TBS-Tween, pH 7.6) for 30 min at 37° C. After blocking, the wells were incubated with 100 μl HRP-conjugated Extr-Avidin peroxidase (Sigma-Aldrich, UK) in blocking buffer (1:1,000 dilution) for 1 h at 37° C. After another set of washes, TG2 activity was measured using Sigma Fast OPD, tablets dissolved in 20 ml of distilled H2O. The colour was developed by adding 2.5 M H2SO4 and the absorbance at 490 nm measured using a microplate reader ELx808™. All inhibitors were dissolved in DMSO as a 100 mM solution prior to addition to the assay.

[2] = target: T2, transglutaminase 1 (Homo sapiens, UniProt P22735); assay: TG-CovTest commercial microassay, transglutaminase 1; conditions: read-out: Estimated IC50 TG1
T2 sequence (P22735 1-817): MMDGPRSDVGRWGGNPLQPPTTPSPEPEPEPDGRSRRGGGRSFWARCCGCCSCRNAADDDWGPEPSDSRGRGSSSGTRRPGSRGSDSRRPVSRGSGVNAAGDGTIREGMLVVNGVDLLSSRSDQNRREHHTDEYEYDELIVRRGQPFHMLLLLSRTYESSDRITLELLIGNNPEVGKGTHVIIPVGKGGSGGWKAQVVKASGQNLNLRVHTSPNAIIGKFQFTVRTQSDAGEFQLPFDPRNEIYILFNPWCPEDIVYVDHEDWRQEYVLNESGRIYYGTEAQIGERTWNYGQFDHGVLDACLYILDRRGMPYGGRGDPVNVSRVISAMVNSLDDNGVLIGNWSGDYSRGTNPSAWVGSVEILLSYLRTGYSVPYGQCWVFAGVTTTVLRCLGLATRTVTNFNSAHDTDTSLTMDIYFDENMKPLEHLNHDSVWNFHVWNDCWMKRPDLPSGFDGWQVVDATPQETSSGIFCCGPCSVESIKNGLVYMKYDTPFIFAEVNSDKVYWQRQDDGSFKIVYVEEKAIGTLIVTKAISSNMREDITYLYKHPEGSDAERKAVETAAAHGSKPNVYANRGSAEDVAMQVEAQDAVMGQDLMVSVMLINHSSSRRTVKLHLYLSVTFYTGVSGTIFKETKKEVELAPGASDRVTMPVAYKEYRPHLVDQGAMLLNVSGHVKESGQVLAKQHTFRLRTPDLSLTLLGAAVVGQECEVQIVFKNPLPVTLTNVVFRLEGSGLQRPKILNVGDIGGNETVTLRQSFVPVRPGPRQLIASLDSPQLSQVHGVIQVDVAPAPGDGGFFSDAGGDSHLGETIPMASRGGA
Excerpt: (§1) For determination of the activity of transglutaminase 1,transglutaminase 3 and Factor X111a, a commercial microassay was used, TG-CovTest (Covalab, Lyon, France; see also Perez et al. Anal Biochem. 2009; 389:150-156).

[3] = target: T3, transglutaminase 3 (Homo sapiens, UniProt Q08188); assay: TG-CovTest commercial microassay, transglutaminase 3; conditions: read-out: Estimated IC50 TG3
T3 sequence (Q08188 1-693): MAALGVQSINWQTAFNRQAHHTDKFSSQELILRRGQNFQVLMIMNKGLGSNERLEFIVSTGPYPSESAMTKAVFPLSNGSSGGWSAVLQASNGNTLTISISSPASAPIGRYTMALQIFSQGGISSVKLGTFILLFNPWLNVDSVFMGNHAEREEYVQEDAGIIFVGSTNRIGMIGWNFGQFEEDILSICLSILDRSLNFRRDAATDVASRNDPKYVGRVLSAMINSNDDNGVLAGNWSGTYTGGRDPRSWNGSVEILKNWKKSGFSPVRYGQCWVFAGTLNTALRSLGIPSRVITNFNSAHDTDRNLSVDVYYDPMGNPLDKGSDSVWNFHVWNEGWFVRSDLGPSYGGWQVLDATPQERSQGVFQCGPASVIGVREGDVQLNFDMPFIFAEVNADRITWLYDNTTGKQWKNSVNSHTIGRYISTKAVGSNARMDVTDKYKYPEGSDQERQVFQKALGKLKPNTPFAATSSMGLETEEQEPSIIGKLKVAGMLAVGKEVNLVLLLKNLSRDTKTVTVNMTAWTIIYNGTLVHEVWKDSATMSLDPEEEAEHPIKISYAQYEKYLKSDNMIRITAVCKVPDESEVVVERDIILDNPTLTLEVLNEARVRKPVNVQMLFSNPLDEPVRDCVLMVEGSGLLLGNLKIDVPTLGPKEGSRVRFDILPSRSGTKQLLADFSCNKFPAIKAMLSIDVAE
Excerpt: as §1

[4] = target: T4, Factor X111a (Homo sapiens, UniProt P00488); assay: TG-CovTest commercial microassay, Factor X111a; conditions: read-out: Estimated IC50 FXIII
T4 sequence (P00488 39-732 limits assumed): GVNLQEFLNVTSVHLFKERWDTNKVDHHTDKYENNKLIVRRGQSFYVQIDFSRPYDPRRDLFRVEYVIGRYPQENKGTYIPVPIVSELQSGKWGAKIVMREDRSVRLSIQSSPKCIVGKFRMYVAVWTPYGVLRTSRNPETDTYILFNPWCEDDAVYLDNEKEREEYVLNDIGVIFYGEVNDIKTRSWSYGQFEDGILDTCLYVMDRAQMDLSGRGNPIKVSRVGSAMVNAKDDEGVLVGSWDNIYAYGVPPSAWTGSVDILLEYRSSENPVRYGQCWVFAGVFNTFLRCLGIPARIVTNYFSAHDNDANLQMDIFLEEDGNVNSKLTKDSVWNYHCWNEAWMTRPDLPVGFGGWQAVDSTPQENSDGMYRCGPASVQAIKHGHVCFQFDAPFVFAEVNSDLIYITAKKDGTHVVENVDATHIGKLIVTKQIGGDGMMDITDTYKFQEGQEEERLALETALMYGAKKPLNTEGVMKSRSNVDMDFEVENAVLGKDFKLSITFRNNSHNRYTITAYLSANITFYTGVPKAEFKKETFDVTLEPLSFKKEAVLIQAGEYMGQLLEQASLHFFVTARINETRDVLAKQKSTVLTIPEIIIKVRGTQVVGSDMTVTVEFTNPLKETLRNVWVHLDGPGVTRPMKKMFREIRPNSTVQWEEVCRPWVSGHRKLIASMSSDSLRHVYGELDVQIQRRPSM
Excerpt: as §1

[5] = target: T5, purified recombinant human TG2 (Homo sapiens, UniProt P21980); assay: Selectivity assay, TG2, biotin X-cadaverine incorporation into N,N′-dimethylcasein (Example 4); conditions: recombinant human TG2 2 μg/ml, 1 h at 37° C.; errors are SD
T5 construct: purchased Zedira, Germany
T5 sequence (P21980 1-687): T1 sequence (P21980 1-687)
Procedure: (§2) TG transamidation activity and the effect of inhibitors on activity was measured by biotin X-cadaverine incorporation into N,N′-dimethylcasein. After coating 96 well plates with 100 μl of 10 mg/ml N,N′-dimethylcasein in 50 mM Tris-Cl, pH8 at 4° C. over night, plates were washed with TBS-0.05% Tween-20(v/v), pH 7.6 and TBS, pH 7.6, and either 100 μl purified recombinant human TG2 (2 μg/ml Zedira, Germany) or 100 μl purified recombinant human FXIIIa (2 μg/ml Zedira, Germany, preactivated by incubation with 0.01 U bovine thrombin/μg FXIII at room temperature for 30 minutes) in 50 mM Tris-HCl, pH7.4, containing 1 mM DTT, 10 mM CaCl2 and 0.1 μM biotin-cadaverine added into the coated wells containing the appropriate concentration of inhibitor. The reaction was allowed to proceed for 1 h at 37° C. The plate was then washed twice with TBS-Tween-20 (v/v), pH 7.6 and once with TBS, pH 7.6 before being blocked with 100 μl of blocking buffer (3% (w/v) BSA in TBS-Tween, pH 7.6) for 30 min at 37° C. After blocking, the wells were incubated with 100 μl HRP-conjugated ExtrAvidin peroxidase (Sigma-Aldrich, UK) in blocking buffer (1:1,000 dilution) for 1 h at 37° C. After another set of washes, TG2 activity was measured using Sigma Fast OPD, tablets dissolved in 20 ml of distilled H2O. The colour was developed by adding 2.5M H2SO4 and the absorbance at 490 nm measured using a microplate reader ELx808™. All inhibitors were dissolved in DMSO as a 100 mM solution prior to addition to the assay.

[6] = target: T6, purified recombinant human FXIIIa (Homo sapiens, UniProt P00488); assay: Selectivity assay, FXIIIa, biotin X-cadaverine incorporation into N,N′-dimethylcasein (Example 4); conditions: recombinant human FXIIIa 2 μg/ml, thrombin preactivated, 1 h at 37° C.; errors are SD; read-out: FACTOR XIII IC50
T6 construct: purchased Zedira, Germany
T6 sequence (P00488 39-732 limits assumed): T4 sequence (P00488 39-732 limits assumed)
Procedure: as §2

| Structure (SMILES) | IC50 [1] [µM] | IC50 [2] [µM] | IC50 [3] [µM] | IC50 [4] [µM] | IC50 [5] [µM] | IC50 [6] [µM] |
| --- | --- | --- | --- | --- | --- | --- |
| C=CC(=O)NCC(=O)N1CCN(S(=O)(=O)c2cccc3c(N(C)C)cccc23)CC1 [EB 1-155] | 0.0061 ± 0.00042 | 5 | > 100 | > 100 |  |  |
| C[S+](C)CC(=O)N[C@H](Cc1ccccc1)C(=O)N1CCN(C(=O)OCc2ccccc2)CC1 [EB 1-127] | > 100 |  |  |  | > 500 | 23.3 ± 5.5 |
| C[S+](C)CC(=O)N[C@@H](Cc1ccccc1)C(=O)N1CCN(C(=O)OCc2ccccc2)CC1 [EB 1-126] | > 100 |  |  |  | > 500 | 15.5 ± 6.3 |
| C=CC(=O)N[C@H](Cc1ccccc1)C(=O)N1CCN(C(=O)OCc2ccccc2)CC1 [EB 1-131] | > 100 |  |  |  | > 500 | 13.5 ± 4.9 |

Continued, values first:

| IC50 [1] [µM] | IC50 [2] [µM] | IC50 [3] [µM] | IC50 [4] [µM] | IC50 [5] [µM] | IC50 [6] [µM] | Structure (SMILES) |
| --- | --- | --- | --- | --- | --- | --- |
|  | > 100 | > 100 | > 100 |  |  | CC[S+](CC)CC(=O)NCC(=O)N1CCN(S(=O)(=O)c2cccc3c(N(C)C)cccc23)CC1 [EB 1-159] |
|  | 2 |  | 30 |  |  | C=CC(=O)NCC(=O)N1CCN(C(=O)C23CC4CC(CC(C4)C2)C3)CC1 [EB 2-16] |
| < 1 | 2 | 25 | > 100 |  |  | O=C(CBr)NCC(=O)N1CCN(C(=O)OCC23CC4CC(CC(C4)C2)C3)CC1 [EB 1-176] |

From US9656978B2, “Acylpiperazines as inhibitors of transglutaminase and their use in medicine” (ASTON UNIVERSITY, priority 2012, dated 2017)
